Laboratory results taken from patent US12133900B2, “Synthesis and composition of amino acid linking groups conjugated to compounds used for the targeted imaging of tumors” (Purdue Research Foundation, priority 2013, dated 2024).
“Also recorded” adds a separate entry of the source.

Key:
[1] = system: folate receptor positive KB tumor xenografts; assay: Whole body imaging and tissue biodistribution, KB tumor xenografts; type: in vivo, mice; conditions: for tumor uptake: 0.3 nmol dose i.v.; for non-specific uptake: 60 and 90 nmol doses i.v.
Description: (§1) Seven-week-old female nu/nu mice were inoculated subcutaneously with KB cells (1.0×10^6/mouse in folate free RPM11640 medium) on the shoulder. […] […] Whole body imaging (intact tumor) experiments were then performed using a Caliper IVIS Lumina II Imaging Station with Living Image 4.0 software (PerkinElmer Inc, MA). Settings for imaging:—lamp level: medium; excitation: 745 nm; emission: 830 nm; epi illumination; binning: 4 (M), FOV=12.5; f-stop=2; acquisition time=1 s.
(§2) Following whole body imaging, animals were dissected and selected tissues (heart, lung, liver, spleen, kidneys, stomach, small intestine, large intestine, muscle, skin, tumor) were analyzed for fluorescence activity using IVIS imager as before. Settings for imaging: lamp level: medium; excitation: 745 nm; emission: 830 nm; epi illumination; binning: 4 (M), FOV=12.5; f-stop=2; acquisition time=1 s.
as §1, with “shoulder. Growth of the tumors was measured in perpendicular directions every 2 days using a caliper (body weights were monitored on the same schedule), and the volumes of the tumors were calculated as 0.5×L×W^2 (L=longest axis and W=axis perpendicular to L in millimeters).” for “shoulder.”, “ICG (830 nm);” for “830 nm;”
as §2, with “skin, and” for “skin,”, “imaging:—lamp” for “imaging: lamp”, “emission:ICG (830 nm);” for “emission: 830 nm;”
Five-week-old female nu/nu mice were inoculated subcutaneously with KB cells (1.0×10^6/mouse in RPMI medium) on their shoulders. Growth of the tumors was measured in two perpendicular directions every 2 days using a caliper (body weights were monitored on the same schedule), and the volumes of the tumors were calculated as 0.5×L×W^2 (L) longest axis and W) axis perpendicular to L in millimeters). Once tumors reached between 400 and 500 mm3 in volume, animals were treated with folate receptor-targeted NIR dye conjugate (10 nmol) in phosphate buffered saline (100 μL). […]
Animal imaging experiments were performed using a Caliper Ivis Lumina II Imaging Station with Living Image 4.0 software. Settings for imaging Alexa Fluor 647 and DyLight 680 conjugates: lamp level: high; excitation: 605; emission: Cy5.5; epi illumination; binning: (M) 4; FOV=7.5; f-stop=4; acquisition time=1 s. Settings for imaging DyLight 750 and IR800CW conjugates: lamp level: high; excitation: 745; emission: ICG; epi illumination; binning: (M) 4, FOV=12.5; f-stop=4; acquisition time=1 s.
Seven-week-old female nu/nu mice were inoculated subcutaneously with KB cells (1.0×10^6/mouse in folate free RPM11640 medium) on the shoulder. Growth of the tumors was measured in perpendicular directions every 2 days using a caliper (body weights were monitored on the same schedule), and the volumes of the tumors were calculated as 0.5×L×W^2 (L=longest axis and W=axis perpendicular to L in millimeters). Once tumors reached between 400 and 500 mm3 in volume, animals (5 mice/group) were intravenously injected with 10 nmol of OTL-0038 or OTL-0039 in phosphate buffered saline (100 μL). After 2.5 hours, animals were euthanized by CO2 asphyxiation. Whole body imaging (intact tumor) experiments were then performed using a Caliper IVIS Lumina II Imaging Station with Living Image 4.0 software (PerkinElmer Inc, MA). […]

[2] = Toxicity in healthy nude mice; type: in vivo
Description: Seven-week-old healthy female nude mice (5 mice/group) were administered with 1 μmol of freshly prepared OTL-0038 or OTL-0039 dissolved in 100 μL of phosphate buffered saline via tail vein injection on day zero. Body weights and clinical observations were monitored prior to dosing and daily thereafter from day zero to 7. Any animals with a body weight loss of 20% or more over two consecutive days would be euthanized, but this was not necessary. The animals were euthanized by CO2 asphyxiation on day 7 and selected tissues (brain, heart, lung, liver, spleen, kidney, stomach, small intestine, large intestine, muscle, skin) were collected into vials containing 4% formalin. Formalin fixed tissues were sectioned into 10 μm thick sections and mounted onto Superfrost Plus™ slides (Fisher Scientific, Pittsburgh Pa.). After staining the slides with H&E, immunohistochemistry (IHC) analysis of the tissues was conducted to determine to the toxicity of OTL-0038 and OTL-0039.

[3] = 10 nmol i.v., 2 h, listed as OTL38
[4] = 10 nmol i.v., 2 h, listed as Pte-Tyr-S0456
[5] = 10 nmol tail vein, live imaging
[6] = dose escalation 0.3-90 nmol i.v.

Structure (SMILES): CC1(C)C(/C=C/C2=C(Oc3ccc(C[C@H](NC(=O)c4ccc(NCc5cnc6nc(N)[nH]c(=O)c6n5)cc4)C(=O)[O-])cc3)C(=C/C=C3\N(CCCCS(=O)(=O)[O-])c4ccc(S(=O)(=O)[O-])cc4C3(C)C)/CCC2)=[N+](CCCCS(=O)(=O)[O-])c2ccc(S(=O)(=O)[O-])cc21.[H+].[H+].[H+].[H+] [OTL-0038, Pte-Tyr-S0456]
- tumor uptake [1]: lower uptake in folate receptor-positive tumors (weak fluorescence intensity)
- tumor uptake ([1]; listed as OTL38): lower uptake in FR-positive tumors (weak fluorescence intensity)
- whole body imaging, tissue biodistribution and tumor-to-tissue ([1]; 2 nmol dose, 2 h post injection): excellent
- time in which nonspecific skin tissue uptake clears ([1]; 10 nmol): ≤ 24 h
- tumor fluorescence intensity, direct comparison ([1]; 10 nmol i.v., 2 h): brighter than the mice treated with the other conjugates
- tumor-to-tissue ratios ([1]; 10 nmol i.v., 2 h): excellent tumor-to-tissue ratios except the skin
- whole body imaging: accumulation ([1]; 10 nmol i.v., 2 h): accumulated predominantly in the folate receptor-positive tumors
- ex vivo tissue biodistribution [1, 3]: highest fluorescence intensity was observed in FR-positive tumors with no accumulation in the other tissues except the kidneys and skin
- whole body imaging: accumulation [1, 3]: accumulated predominantly in the FR positive KB tumors
- ex vivo tissue biodistribution [1, 4]: accumulated predominantly in the folate receptor positive tumors with no substantial fluorescence activity in other organs except the kidneys
- tumor fluorescence intensity, direct comparison [1, 4]: competitive, in terms of fluorescent brightness, to all folate-NIR conjugates
- whole body imaging: accumulation [1, 4]: mainly accumulated in the folate receptor positive tumors and no fluorescence was observed in other tissues
- ex vivo tissue biodistribution ([1]; 10 nmol i.v., 2.5 h): highest fluorescence intensity was observed in FR-positive tumors with no accumulation in the other tissues except the kidneys; also recorded: mainly accumulated in folate receptor positive tumor xenografts and kidneys
- tumor fluorescence intensity, direct comparison ([1]; 10 nmol i.v., 2.5 h): brighter (higher); also recorded: beneficial aspects relative to folate-LS288, folate-IR800, and folate-ZW800 in tumor accumulated fluorescence intensity
- tumor-to-normal tissue fluorescence ratios ([1]; 10 nmol i.v., 2.5 h): excellent tumor-to-normal tissue fluorescence ratios
- whole body imaging: accumulation ([1]; 10 nmol i.v., 2.5 h): accumulated predominantly in the folate receptor positive tumors
- time point at which clearing from the skin starts [1, 5]: 2 h
- time to saturate FR [1, 5]: 2 to 4 h
- time to accumulate in FR positive tumor and kidneys ([1]; 10 nmol tail vein, live imaging 15 min to 48 h): ≤ 1 h
- skin fluorescence ([1]; 10 nmol, 24-48 hour time points): minimal fluorescence
- uptake in sliced (dissected) tumors ([1]; 10 nmol, 2 h): accumulated homogeneously in all tumor cells
- fluorescence intensity in the skin ([1]; 10 nmol, 24 h post injection, ImageJ): minimal
- fluorescence in tumor ([1]; 10 nmol, 48 hour time point): remains high
- non-specific uptake [1]: higher non-specific uptake
- non-specific uptake ([1]; listed as OTL38): higher non-specific uptake in healthy tissues
- highest dose to obtain best tumor-to-background ratio [1, 6]: 30 nmol
- lowest dose to obtain good tumor-to-background ratio [1, 6]: 1.0 nmol
- kidney uptake ([1]; dose range 0.3-10 nmol): higher kidney uptake
- tumor uptake and tumor-to-normal tissue ratio ([1]; dose range 1.0-30.0 nmol i.v.): tumor uptake and excellent tumor-to-normal tissue ratio
- kidney uptake ([1]; dose range 30-90 nmol): less kidney uptake (relative to tumor uptake)
- toxicity (conclusion) ([2]; 1 μmol (1000× clinical dose)): not toxic to animals
- skin colour immediately after the injection ([2]; 1 μmol tail vein): became green
- activity and behaviour ([2]; 1 μmol tail vein, day 0 to 7): behaved normally throughout the study
- body weights over the course of the study ([2]; 1 μmol tail vein, day 0 to 7): remained stable
- lesions in tissues (IHC data) ([2]; 1 μmol tail vein, day 7): no lesions identified in any tissues
